# Measurements: article PMC7617456, “Cryptosporidium lysyl-tRNA synthetase inhibitors define the interplay between solubility and permeability required to achieve efficacy” (Science translational medicine, 2024)
# Experiments:
# HsKRS = target: T1, HsKRS (Homo sapiens, UniProt Q15046); experiment: HsKRS in vitro enzyme assay; format: biochemical; conditions: mean (95% confidence interval)
# T1 construct: made in house
# CHIlogD = format: physicochemical; conditions: pH 7.4
# wild type C. parvum = experiment: Neonatal calf efficacy model; format: in vivo; conditions: for calves receiving treatment that shed Cryptosporidium after day 16 PI: 15 mg/kg BID 7 days, n=7; for Cryptosporidium shedding: 15 mg/kg BID oral 7 days from day 1 PI, to day 16 PI; for fecal scores: 15 mg/kg BID, 0 = normal, 3 = severe, treatment period
# Procedure: Calves were enrolled at birth and challenged with wild type C. parvum oocysts (Fig. 5A). DDD489 and DDD508 were administered orally at 15 mg/kg BID for 7 days, beginning on day 1 PI. Blood was sampled and mean free plasma concentration was determined (Fig. S10). Fecal samples were collected from individual animals and parasite shedding was quantified (oocyst/g) by microscopy and quantitative PCR. Fecal samples were collected daily until day 21 PI to monitor for parasite recrudescence. To determine the impact of our late lead compounds on reducing symptoms of cryptosporidiosis, several clinical observations were scored throughout the study.
# Calves (Holstein Friesian, British Blue Cross, Limousin Cross, or Aberdeen Angus Cross) were born at commercial dairy farms, provided a colostrum feed, and transported to Moredun Scientific. Calves were enrolled in the study if >30 kg at birth and in good health. Enrolment was staggered due to timing of births.
# Calves were assigned to control or treatment groups (7 calves per group) and housed in separate barns (within each barn calves were housed in adjacent, individual pens). Male calves were used in the DDD489 study, and both male and female calves were used in the DDD508 study (control group: 3 females/4 males; treatment group: 2 females/5 males). Calves were challenged on day 1 post birth with 5x10^5 C. parvum oocysts by oral gavage (Sterling Labs for DDD489; Waterborne Inc. for DDD508).
# Starting day 1 PI, vehicle (in 0.5% HPMC, 0.4% Tween 80, 0.5% Benzyl alcohol in sterile water) or treatment (DDD489 or DDD508) were administered by oral gavage twice daily immediately prior to milk feeds, and at least 8 hours apart (± 30 minutes). Vehicle was delivered at a set volume (22.6 ml per occasion) and test compound at 15 mg/kg (maximum volume of 20 ml per occasion; prepared in vehicle). Blood samples were collected from all animals prior to morning treatment on Day 1, then 5 (± 2) minutes, 15 (± 2) minutes, 30 (± 5) minutes, 1, 2, 4, 8 and 24 hours (± 10 minutes) post first daily dose. This sample schedule was repeated on Day 7 for the same animals. Blood samples were processed to plasma. Weight was measured and clinical observations recorded as indicated. Fecal samples were collected daily throughout the study. […]
# was limited to staff involved in the study, and separate PPE was dedicated for use with each […]
# Specified staff were involved in preparing the vehicle and treatment material and were not involved in its administration. These staff were not involved in taking and recording clinical observations or collecting samples. Staff that administered the vehicle and treatment materials were blinded to the material identity. If staff involved in administration of materials or sample collection became “unblinded” at any point in the study, they were immediately removed from […]
# Quantification of Cryptosporidium shedding from calf samples (Moredun Scientific and […]
# Oocyst per gram from calf fecal samples was determined by microscopy (performed at MRI) and by qPCR (Pawlowic Lab at the University of Dundee). For microscopy 0.1 g of fecal material was resuspended in 10 ml PBS. 100 microliters of diluted fecal material was incubated with 15 microliters Cryptosporidium FITC Stain (CellLabs) and incubated at 37 °C for 15 minutes. Samples were then mounted on a grided slide and counted using a fluorescent microscope. For qPCR, fecal samples were continuously stored in 4°C and transported to the University of Dundee. DNA was extracted from 100mg of fecal material (unless otherwise noted) using the Zymo Quick-DNA Fecal/Soil Microbe Miniprep Kit (Cambridge Bioscience, catalog #D6010). Once material was suspended in Bashing Bead Buffer we modified the protocol slightly by adding 5 freeze/thaw cycles.(32) DNA was stored in 4°C to await qPCR.
# For the standard curve, known amounts of wild-type oocysts were added to 100 mg of uninfected murine fecal sample and DNA was extracted using the protocol detailed above. We […]
# [1] = Plasma protein binding, human; format: in vitro ADME; conditions: read-out: PPB (h) (converted)
# [2] = Hepatocyte intrinsic clearance, human; format: in vitro ADME; conditions: human hepatocytes
# CYP450 1A2 = CYP450 1A2 (Homo sapiens, UniProt P05177); experiment: CYP450 inhibition 1A2; format: in vitro ADME
# Procedure: (§1) CYP450 inhibition (Dundee)
# (§2) As previously described.(31)
# (§3) DDD489 and DDD508 were evaluated for their ability to induce reverse mutations both in the presence and absence of S9 mix at the histidine locus in the genome of four strains of Salmonella typhimurium (TA98, TA100, TA1535, and TA97a) and at the tryptophan locus in the genome of Escherichia coli WP2 uvrA in a mini-Ames study conducted at WuXi App Tec […]
# (§4) hERG inhibition (WuXi App Tec)
# (§5) DDD489 and DDD508 were evaluated for their effects on cloned hERG potassium channels stably expressed in Chinese Hamster Ovary (CHO) cells using manual patch-clamp technique in a hERG inhibition assay conducted at WuXi App Tec (Suzhou).
# (§6) Mitochondrial toxicity (Cyprotex)
# (§7) DDD489 and DDD508 were evaluated for their effects on mitochondrial function in a functional mitochondrial toxicity assay using Seahorse XFe96 flux analyser conducted at […]
# (§8) 44 screen safety panel (Eurofins)
# (§9) DDD489 was evaluated for off-target effects in a SafetyScreen44 panel at Eurofins Cerep.
# (§10) All regulated procedures, at the University of Dundee, on living animals were carried out under the authority of a project license issued by the Home Office under the Animals (Scientific Procedures) Act 1986, as amended in 2012 (and in compliance with EU Directive EU/2010/63). […]
# C. hominis = C. hominis growth inhibition in HCT-8 co-culture (image-based); conditions: Cryptosporidium hominis, HCT-8, 48 h, read-out: C. hominis EC50
# Procedure: Cryptosporidium in vitro inhibition (Vermont and Dundee)
# Compounds were prepared in 100% DMSO and added at the time of infection (NLuc) or 3 hours post infection (imaging assays). Compounds were prepared at 1% final concentration DMSO in culture. Parasites were quantified at 48 hours post infection. NanoLuciferase was measured using a GloMax Discovery, Promega.
# A Nikon Ecl ipse Ti2000 epifluorescence microscope with an automated stage was programmed to focus on the center of each well and take a 3×3 composite image using an EXi blue fluorescence microscopy camera (QImaging) with a 20X objective (NA = 0.45). Nuclei and parasite images were separately exported as .tif files, and parasites and host cells were counted using custom NIH ImageJ macros as reported previously.(29) Dose−response curves were
# KRS-A309L = experiment: Transgenic C. parvum NanoLuciferase drug sensitivity assay, KRS-A309L; format: cell-based; conditions: Cryptosporidium parvum, HCT-8, 48 h, read-out: EC50, KRS-A309L
# [3] = system: Salmonella typhimurium (TA98, TA100, TA1535, and TA97a) and Escherichia coli WP2 uvrA; experiment: Mini-Ames; format: cell-based; conditions: presence and absence of S9 mix
# CYP450 2C19 = CYP450 2C19 (Homo sapiens, UniProt P33261); experiment: CYP450 inhibition 2C19; format: in vitro ADME
# Procedure: as §1, §2, §3, §4, §5, §6, §7, §8, §9, §10
# Sequence of CYP450 2C19 (P33261 whole entry): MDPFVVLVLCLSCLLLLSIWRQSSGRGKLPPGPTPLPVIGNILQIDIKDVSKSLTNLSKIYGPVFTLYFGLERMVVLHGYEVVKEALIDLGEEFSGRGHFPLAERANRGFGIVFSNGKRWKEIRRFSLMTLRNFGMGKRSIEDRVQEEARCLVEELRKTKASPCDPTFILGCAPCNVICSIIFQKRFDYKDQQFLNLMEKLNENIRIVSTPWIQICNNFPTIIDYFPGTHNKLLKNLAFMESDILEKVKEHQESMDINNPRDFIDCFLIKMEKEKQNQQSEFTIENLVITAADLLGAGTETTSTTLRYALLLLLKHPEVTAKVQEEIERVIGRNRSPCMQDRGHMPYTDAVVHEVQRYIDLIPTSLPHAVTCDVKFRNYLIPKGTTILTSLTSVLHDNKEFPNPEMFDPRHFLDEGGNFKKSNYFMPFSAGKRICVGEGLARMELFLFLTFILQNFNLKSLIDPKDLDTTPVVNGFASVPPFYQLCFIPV
# T1 sequence (Q15046 whole entry): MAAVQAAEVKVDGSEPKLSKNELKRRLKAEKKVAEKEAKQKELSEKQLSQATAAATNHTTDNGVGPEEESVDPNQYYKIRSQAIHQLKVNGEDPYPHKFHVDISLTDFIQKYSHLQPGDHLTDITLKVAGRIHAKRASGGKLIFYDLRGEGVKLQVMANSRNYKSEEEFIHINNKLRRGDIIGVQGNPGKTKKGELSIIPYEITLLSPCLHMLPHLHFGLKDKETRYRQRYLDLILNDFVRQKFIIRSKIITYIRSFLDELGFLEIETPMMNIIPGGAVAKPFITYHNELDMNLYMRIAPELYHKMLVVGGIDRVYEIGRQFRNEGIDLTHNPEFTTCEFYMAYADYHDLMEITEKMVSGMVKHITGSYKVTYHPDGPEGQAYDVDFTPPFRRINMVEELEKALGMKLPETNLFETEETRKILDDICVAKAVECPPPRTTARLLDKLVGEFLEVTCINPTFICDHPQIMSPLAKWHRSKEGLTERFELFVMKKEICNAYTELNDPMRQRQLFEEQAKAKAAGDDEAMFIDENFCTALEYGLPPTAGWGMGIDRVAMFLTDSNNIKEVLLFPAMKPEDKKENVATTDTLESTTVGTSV
# Sequence of CYP450 1A2 (P05177 whole entry): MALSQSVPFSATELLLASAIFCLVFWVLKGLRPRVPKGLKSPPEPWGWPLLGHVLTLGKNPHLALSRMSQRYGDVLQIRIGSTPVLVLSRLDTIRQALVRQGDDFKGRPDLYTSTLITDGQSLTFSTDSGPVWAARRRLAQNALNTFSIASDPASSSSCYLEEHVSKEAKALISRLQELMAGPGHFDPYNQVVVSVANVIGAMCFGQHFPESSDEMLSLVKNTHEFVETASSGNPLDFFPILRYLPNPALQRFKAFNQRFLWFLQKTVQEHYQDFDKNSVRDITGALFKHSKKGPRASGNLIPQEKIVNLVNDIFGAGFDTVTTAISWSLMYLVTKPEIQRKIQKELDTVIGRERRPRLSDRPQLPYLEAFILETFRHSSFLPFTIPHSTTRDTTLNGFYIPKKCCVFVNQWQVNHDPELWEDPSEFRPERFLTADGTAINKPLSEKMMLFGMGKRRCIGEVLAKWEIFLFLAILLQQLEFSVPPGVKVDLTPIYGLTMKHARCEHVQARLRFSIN
SMILES,IC50 (HsKRS),chromatographic logD (CHIlogD),calves receiving treatment that shed Cryptosporidium after day 16 PI (wild type C. parvum),Cryptosporidium shedding (wild type C. parvum),fecal scores (wild type C. parvum),fraction unbound [1],Heps CLi (h) [2],IC50 (CYP450 1A2),EC50 (C. hominis),EC50 (KRS-A309L),Mini-Ames (4 strains ± S9) [3],IC50 (CYP450 2C19)
Nc1nc2c(c(C(F)(F)F)n1)C(=O)N(CC1CCCC(C(F)(F)F)C1)C2 (stereo not drawn) [DDD489],22 µM,2.8,3/7,did not shed any detectable amount of Cryptosporidium,normal to mild range,0.23,1.1 mL/min/g,40 µM,0.04 µM,8.63 µM,Negative,> 100 µM
O=C(NCC1(O)CCCCC1)c1cc(=O)c2cc(O)ccc2o1 [DDD508],10 µM,1,4/7,did not shed any detectable amount of Cryptosporidium,normal to mild range,0.42,< 0.5 mL/min/g,> 100 µM,0.1 µM,9.93 µM,Negative,> 100 µM
